# Source: patent US8431597B2, “Benzimidazole derivatives” (Pfizer Inc., priority 2007, dated 2013)
# Counter-ions that a name gives are not always drawn.
# Target: T1, Smoothened (SMO) (Mus musculus, UniProt P56726)
# T1 construct: C3H10T1/2 cells (ATCC #CCL-226) were split and seeded; endogenous in cells; host or cells: C3H10T1/2 (ATCC #CCL-226)
# Assay: Smoothened (SMO)/Sonic Hedgehog (SHh) Transient Transcriptional Activation Assay (Gli-luciferase reporter in C3H10T1/2 cells)
# Assay type: cell-based, murine
# Conditions: C3H 10T1/2, 2 μM compound; transfected C3H10T1/2 cells, recombinant human SHh 250 ng/mL, 20 hours, luciferase readout; read-out: SMO CELL % INHIBITION @ 2 μM
# Experimental: As noted above, the compounds of the invention are useful as inhibitors of SMO. • Methods for determining the in vitro activity of these compounds are described below: Smoothened (SMO)/Sonic Hedgehog (SHh) Transient Transcriptional Activation Assay
# On Day 1, 2×10^6 C3H10T1/2 cells (ATCC #CCL-226) were split and seeded in 12 mL of growth medium Basal Medium Eagle (BME, Invitrogen #21010-046) supplemented with 2 mM L-glutamine (Invitrogen #25030-081), 0.1 units/mL penicillin and 0.1 μg/mL streptomycin (Invitrogen #15140-122), and 10% Fetal Bovine Serum (FBS, Invitrogen #16140-071) in a T-75 flask (Costar #3376). They were allowed to attach for 4 hours at 37° C., 5% CO2. The cells were then transfected using Fugene 6 (Roch #11 814 443 001) in the following reaction: 48 μL Fugene 6 and 745 μL Opti-MEM (Invitrogen #31985-070) were mixed and allowed to sit at room temperature for 5 minutes. 8 μg of pGL4.14/mGli(CS) DNA (10× murine Gli response elements and minimal CS promoter) and 0.5 μg of pEGFP DNA (Clontech) were added, gently mixed and incubated at room temperature for 20 minutes. This entire transfection mix was then added to the T-75 flask containing the cells. The cells were incubated at 37° C., 5% CO2 for 18-24 hours.
# On Day 2, the transfected cells were trypsinized and seeded into white 96 well plates (Costar #3917) in 100 μL/well of growth medium at a concentration of 20,000 cells/well. The cells were allowed to recover for 4 hours before adding serum starvation medium Dulbecco's Modified Eagle Medium (DMEM, Invitrogen #21063-029) supplemented with 2 mM L-glutamine, 0.1 units/mL penicillin and 0.1 μg/mL streptomycin, and 0.5% Calf Serum (CS, Invitrogen #26170-043). The growth media was aspirated off, and the cells were rinsed with 100 μL of starvation media. 95 μL of starvation media was then added to each well. The cells were incubated for 20 hours at 37° C., 5% CO2.
# On Day 3, cells were dosed with test compounds at a final concentration ranging from 2 μM to 2 nM. Immediately after dosing cells with compounds, recombinant human sonic hedgehog (SHh, R&D Systems #1845-SH) was add to a final concentration of 250 ng/mL. A 25 μg vial of SHh was reconstituted with 250 μL PBS/0.1% BSA to give a 100 ng/μL working stock. This working stock was then diluted 1:20 in starvation media. The transfected cells were incubated with compounds and SHh for 20 hours at 37° C., 5% CO2.
# Luciferase assays were conducted on Day 4 using Dual-Glo Luciferase assay system (Promega #E2940) according to Promega's protocol. Briefly, Dual-Glo luciferase reagent was made up and 100 μL were added to each well of the 96 well plate containing media. Plates were shaken at room temperature for 10 minutes, and then read on TopCount (Perkin-Elmer). The luminescence was recorded.
# T1 sequence (P56726 33-793): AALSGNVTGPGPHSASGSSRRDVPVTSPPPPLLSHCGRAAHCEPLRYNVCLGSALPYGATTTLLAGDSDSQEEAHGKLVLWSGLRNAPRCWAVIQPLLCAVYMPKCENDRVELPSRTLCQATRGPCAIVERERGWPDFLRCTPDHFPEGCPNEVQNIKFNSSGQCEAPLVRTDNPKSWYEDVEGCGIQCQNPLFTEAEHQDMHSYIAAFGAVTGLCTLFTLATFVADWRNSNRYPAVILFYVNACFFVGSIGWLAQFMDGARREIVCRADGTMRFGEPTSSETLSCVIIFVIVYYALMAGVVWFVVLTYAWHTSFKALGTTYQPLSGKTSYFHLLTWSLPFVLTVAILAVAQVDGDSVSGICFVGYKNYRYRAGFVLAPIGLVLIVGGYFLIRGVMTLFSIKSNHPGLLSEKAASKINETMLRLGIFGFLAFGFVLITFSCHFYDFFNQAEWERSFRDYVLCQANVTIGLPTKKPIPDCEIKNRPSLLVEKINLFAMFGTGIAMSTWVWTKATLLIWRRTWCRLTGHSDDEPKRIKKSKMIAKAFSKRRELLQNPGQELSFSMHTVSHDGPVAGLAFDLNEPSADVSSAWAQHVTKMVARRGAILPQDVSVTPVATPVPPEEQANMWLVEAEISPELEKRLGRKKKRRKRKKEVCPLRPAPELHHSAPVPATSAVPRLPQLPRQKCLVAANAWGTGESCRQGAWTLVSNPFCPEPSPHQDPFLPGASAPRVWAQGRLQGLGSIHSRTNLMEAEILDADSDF
row,SMILES,inhibition at 2 µM
1,"CN1CC[C@@H](NC(=O)Nc2ccc(Cl)cc2)C[C@@H]1c1nc2ccccc2[nH]1 [Example 30, 1-[(2R,4R)-2-(1H-benzimidazol-2-yl)-1-methylpiperidin-4-yl]-3-(4-chlorophenyl)urea hydrochloride]",108%
2,"CN1CC[C@@H](NC(=O)Nc2ccc(C#N)cc2)C[C@@H]1c1nc2ccccc2[nH]1 [Example 31, 1-[(2R,4R)-2-(1H-benzimidazol-2-yl)-1-methylpiperidin-4-yl]-3-(4-cyanophenyl)urea hydrochloride]",107%
3,"CN1CC[C@@H](NC(=O)Nc2ccc(F)nc2)C[C@@H]1c1nc2ccccc2[nH]1 [Example 32, 1-[(2R,4R)-2-(1H-benzimidazol-2-yl)-1-methylpiperidin-4-yl]-3-(6-fluoropyridin-3-yl)urea hydrochloride]",107%
4,"CN1CC[C@@H](NC(=O)c2ccc3c(c2)CCCO3)C[C@@H]1c1nc2ccccc2[nH]1 [Example 33, N-[(2R,4R)-2-(1H-benzimidazol-2-yl)-1-methylpiperidin-4-yl]chromane-6-carboxamide hydrochloride]",114%
5,"CN1CC[C@@H](NC(=O)c2ccc3c(c2)OCCO3)C[C@@H]1c1nc2ccc(Cl)cc2[nH]1 [Example 34, N-[(2R,4R)-2-(6-chloro-1H-benzimidazol-2-yl)-1-methylpiperidin-4-yl]-2,3-dihydro-1,4-benzodioxine-6-carboxamide hydrochloride]",107%
6,"CN1CC[C@@H](NC(=O)Nc2ccc(C(F)(F)F)nc2)C[C@@H]1c1nc2cc(C(F)(F)F)ccc2[nH]1 [Example 35, 1-{(2R,4R)-1-methyl-2-[5-(trifluoromethyl)-1H-benzimidazol-2-yl]piperidin-4-yl}-3-[6-(trifluoromethyl)pyridin-3-yl]urea hydrochloride]",107%
7,"Cc1ccc2[nH]c([C@H]3C[C@H](NC(=O)Nc4ccc(C#N)cc4)CCN3C)nc2c1 [Example 36, 1-(4-cyanophenyl)-3-[(2R,4R)-1-methyl-2-(5-methyl-1H-benzimidazol-2-yl)piperidin-4-yl]urea hydrochloride]",107%
8,"COc1ccc(NC(=O)N[C@@H]2CCN(C)[C@@H](c3nc4ccccc4[nH]3)C2)cc1 [Example 37, 1-[(2R,4R)-2-(1H-benzimidazol-2-yl)-1-methylpiperidin-4-yl]-3-(4-methoxyphenyl)urea hydrochloride]",106%
9,"COc1ccc2nc([C@H]3C[C@H](NC(=O)c4ccc5c(c4)OCCO5)CCN3C)[nH]c2c1 [Example 38, N-[(2R,4R)-2-(6-methoxy-1H-benzimidazol-2-yl)-1-methylpiperidin-4-yl]-2,3-dihydro-1,4-benzodioxine-6-carboxamide hydrochloride]",106%
10,"CC(C)CN1CC[C@@H](NC(=O)Nc2ccc(C#N)cc2)C[C@@H]1c1nc2ccccc2[nH]1 [Example 39, 1-[(2R,4R)-2-(1H-benzimidazol-2-yl)-1-isobutylpiperidin-4-yl]-3-(4-cyanophenyl)urea]",106%
11,"Cc1cc(NC(=O)N[C@@H]2CCN(C)[C@@H](c3nc4ccccc4[nH]3)C2)cnc1F [Example 40, 1-[(2R,4R)-2-(1H-benzimidazol-2-yl)-1-methylpiperidin-4-yl]-3-(6-fluoro-5-methylpyridin-3-yl)urea hydrochloride]",106%
12,"CN1CC[C@@H](NC(=O)Nc2cc(F)cc3c2OCOC3)C[C@@H]1c1nc2ccccc2[nH]1 [Example 41, 1-[(2R,4R)-2-(1H-benzimidazol-2-yl)-1-methylpiperidin-4-yl]-3-(6-fluoro-4H-1,3-benzodioxin-8-yl)urea hydrochloride]",106%
13,"CN1CC[C@@H](NC(=O)c2ccc3c(c2)OCCO3)C[C@H]1c1nc2ccccc2[nH]1 [Example 42, N-[(2S,4R)-2-(1H-benzimidazol-2-yl)-1-methylpiperidin-4-yl]-2,3-dihydro-1,4-benzodioxine-6-carboxamide hydrochloride]",106%
14,"CN1CC[C@@H](NC(=O)Nc2ccc(C#N)cn2)C[C@@H]1c1nc2ccccc2[nH]1 [Example 43, 1-[(2R,4R)-2-(1H-benzimidazol-2-yl)-1-methylpiperidin-4-yl]-3-(5-cyanopyridin-2-yl)urea hydrochloride]",106%
15,"CCN1CC[C@@H](NC(=O)c2ccc3c(c2)OCCO3)C[C@@H]1c1nc2ccccc2[nH]1 [Example 44, N-[(2R,4R)-2-(1H-benzimidazol-2-yl)-1-ethylpiperidin-4-yl]-2,3-dihydro-1,4-benzodioxine-6-carboxamide hydrochloride]",105%
16,"CN1CC[C@@H](NC(=O)c2ccc3c(c2)OCCO3)C[C@@H]1c1nc2ccc(F)cc2[nH]1 [Example 45, N-[(2R,4R)-2-(6-fluoro-1H-benzimidazol-2-yl)-1-methylpiperidin-4-yl]-2,3-dihydro-1,4-benzodioxine-6-carboxamide hydrochloride]",105%
17,"CCN1CC[C@@H](NC(=O)Nc2ccc(C#N)cc2)C[C@@H]1c1nc2ccccc2[nH]1 [Example 46, 1-[(2R,4R)-2-(1H-benzimidazol-2-yl)-1-ethylpiperidin-4-yl]-3-(4-cyanophenyl)urea]",105%
18,"CN1CC[C@@H](NC(=O)c2ccc3c(c2)CCO3)C[C@@H]1c1nc2ccccc2[nH]1 [Example 47, N-[(2R,4R)-2-(1H-benzimidazol-2-yl)-1-methylpiperidin-4-yl]-2,3-dihydro-1-benzofuran-5-carboxamide hydrochloride]",105%
19,"Cc1ccc(NC(=O)N[C@@H]2CCN(C)[C@@H](c3nc4ccccc4[nH]3)C2)c(C)n1 [Example 48, 1-[(2R,4R)-2-(1H-benzimidazol-2-yl)-1-methylpiperidin-4-yl]-3-(2,6-dimethylpyridin-3-yl)urea hydrochloride]",105%
20,"Cc1cc2nc([C@H]3C[C@H](NC(=O)c4ccc5c(c4)OCCO5)CCN3C)[nH]c2cc1C [Example 49, N-[(2R,4R)-2-(5,6-dimethyl-1H-benzimidazol-2-yl)-1-methylpiperidin-4-yl]-2,3-dihydro-1,4-benzodioxine-6-carboxamide hydrochloride]",105%
21,"CC(=O)c1c(C)[nH]c(C(=O)N[C@@H]2CCN(C)[C@@H](c3nc4ccccc4[nH]3)C2)c1C [Example 50, 4-acetyl-N-[(2R,4R)-2-(1H-benzimidazol-2-yl)-1-methylpiperidin-4-yl]-3,5-dimethyl-1H-pyrrole-2-carboxamide hydrochloride]",105%
22,"CN1CC[C@@H](NC(=O)Nc2ccc(C#N)cc2)C[C@@H]1c1nc2cc(F)ccc2[nH]1 [Example 51, 1-(4-cyanophenyl)-3-[(2R,4R)-2-(5-fluoro-1H-benzimidazol-2-yl)-1-methylpiperidin-4-yl]urea hydrochloride]",105%
23,"Cc1cc2nc([C@H]3C[C@H](NC(=O)Nc4ccc(C#N)cc4)CCN3C)[nH]c2cc1C [Example 52, 1-(4-cyanophenyl)-3-[(2R,4R)-2-(5,6-dimethyl-1H-benzimidazol-2-yl)-1-methylpiperidin-4-yl]urea hydrochloride]",105%
24,"CC(C)c1ccc(NC(=O)N[C@@H]2CCN(C)[C@@H](c3nc4ccccc4[nH]3)C2)cc1 [Example 53, 1-[(2R.4R)-2-(1H-benzimidazol-2-yl)-1-methylpiperidin-4-yl]-3-(4-isopropylphenyl)urea hydrochloride]",105%
25,"CN1CC[C@@H](NC(=O)Nc2ccc(C#N)nc2)C[C@@H]1c1nc2ccccc2[nH]1 [Example 54, 1-[(2R,4R)-2-(1H-benzimidazol-2-yl)-1-methylpiperidin-4-yl]-3-(6-cyanopyridin-3-yl)urea hydrochloride]",105%
26,"CN1CC[C@@H](NC(=O)Nc2ccc(C(F)(F)F)nc2)C[C@@H]1c1nc2cc(C#N)ccc2[nH]1 [Example 55, 1-[(2R,4R)-2-(5-cyano-1H-benzimidazol-2-yl)-1-methylpiperidin-4-yl]-3-[6-(trifluoromethyl)pyridin-3-yl]urea hydrochloride]",105%
